From BindingDB's records for doi:10.1021/jm00022a004 (H. Lundbeck, 1995)

Target: 5-hydroxytryptamine receptor 2A (Rattus norvegicus, UniProt P14842)
Assay: Binding affinity for 5-hydroxytryptamine 2A receptor, activity is expressed as IC50 values.

Chain of 5-hydroxytryptamine receptor 2A (P14842 whole entry): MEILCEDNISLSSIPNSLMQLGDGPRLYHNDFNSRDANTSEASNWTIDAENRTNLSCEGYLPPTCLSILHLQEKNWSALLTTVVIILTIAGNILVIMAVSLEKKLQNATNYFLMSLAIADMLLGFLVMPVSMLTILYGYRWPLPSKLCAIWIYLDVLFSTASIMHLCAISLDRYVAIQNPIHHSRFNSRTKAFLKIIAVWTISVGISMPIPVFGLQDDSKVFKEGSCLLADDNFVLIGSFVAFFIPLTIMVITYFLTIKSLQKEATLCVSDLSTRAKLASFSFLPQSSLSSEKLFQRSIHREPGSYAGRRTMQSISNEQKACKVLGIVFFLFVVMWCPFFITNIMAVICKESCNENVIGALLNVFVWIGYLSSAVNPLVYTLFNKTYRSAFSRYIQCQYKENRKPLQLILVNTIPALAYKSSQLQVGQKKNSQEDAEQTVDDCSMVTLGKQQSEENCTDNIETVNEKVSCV

CC1(C)CN(C2CC(c3ccc(F)cc3)c3ccc(Cl)cc32)CCN1 (stereo unspecified) [1-[6-Chloro-3-(4-fluoro-phenyl)-indan-1-yl]-3,3-dimethyl-piperazine]
IC50: 3.2 nM
